Source: patent US20230117034A1, “PYRAZOLOTRIAZINES” (Bayer Aktiengesellschaft, priority 2019, published 2023)
Where two headings read alike, the source gives them in different places.

Experiments:
[1] = test system: BRCA1 mRNA expression in MDA-MB-231 cells; test: qRT-PCR assay: BRCA1 mRNA expression in MDA-MB-231; assay type: cell-based, human; details: median, read-out: RTqPCR-MDA-MB-231, IC50, BRCA1 (median)
Method in brief: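 BRCA1 transcript by RT-qPCR relative to GAPDH, from 600 ng RNA converted to cDNA. MDA-MB-231 cells plated at 200,000/well received test compound continuously for 24 h, starting 24 h post-seeding.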

[2] = test system: MDA-MB-231, human breast cancer cells; test: Proliferation assay MDA-MB-231 (crystal violet, 4 days); assay type: cell-based; details: MDA-MB-231 cells, median, read-out: Prolif-MDA MB-231, IC50-[mol/l] (median)
Method in brief: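 IC50 from a 4-parameter fit of crystal violet absorbance (595 nm), scaled between the day-of-dosing plate (0%) and vehicle cells (100%). MDA-MB-231 or CAL-120 cells were treated for 4 days with 0.01–10 micromol/L compound in 0.1% DMSO after 24 h attachment.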

CDK12/CycK = CDK12/CycK (Homo sapiens, UniProt Q9NYV4); test: CDK12/CycK high ATP kinase assay (TR-FRET, 2 mM ATP); assay type: biochemical; details: 2 mM ATP (high ATP); median; read-out: CDK12/CyclinK, 2 mM ATP (high ATP), IC50-[mol/l] (median)
Method in brief: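 Read-out is TR-FRET (Eu-anti-rabbit IgG, anti-phospho-c-Myc Ser62 antibody, streptavidin-XL665) after EDTA stop. Reaction ran 60 min at 22 °C using 1 µM biotin-peptide and high ATP (2 mM) with roughly 0.75 nM recombinant CDK12/CycK, after 15 min compound pre-binding; normalised emission ratios yield IC50.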

[3] = Homo sapiens, MDA-MB-231, Inhibition of BRCA1 mRNA expression in MDA-MB-231 cells

Chain of CDK12/CycK (Q9NYV4 with tags, fused parts or gaps): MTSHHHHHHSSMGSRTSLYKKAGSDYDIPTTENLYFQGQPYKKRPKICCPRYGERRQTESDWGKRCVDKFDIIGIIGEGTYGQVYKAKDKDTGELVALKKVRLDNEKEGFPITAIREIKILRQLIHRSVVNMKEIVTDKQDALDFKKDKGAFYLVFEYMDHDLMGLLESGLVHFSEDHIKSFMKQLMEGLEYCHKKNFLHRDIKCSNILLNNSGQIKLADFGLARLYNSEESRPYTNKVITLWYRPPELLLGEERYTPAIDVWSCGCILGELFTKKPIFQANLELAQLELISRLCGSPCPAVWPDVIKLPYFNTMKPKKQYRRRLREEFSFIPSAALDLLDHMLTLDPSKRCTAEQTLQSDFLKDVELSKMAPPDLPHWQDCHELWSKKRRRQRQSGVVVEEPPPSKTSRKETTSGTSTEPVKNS
Chain of CDK12/CycK (O75909 1-300 partner limits assumed): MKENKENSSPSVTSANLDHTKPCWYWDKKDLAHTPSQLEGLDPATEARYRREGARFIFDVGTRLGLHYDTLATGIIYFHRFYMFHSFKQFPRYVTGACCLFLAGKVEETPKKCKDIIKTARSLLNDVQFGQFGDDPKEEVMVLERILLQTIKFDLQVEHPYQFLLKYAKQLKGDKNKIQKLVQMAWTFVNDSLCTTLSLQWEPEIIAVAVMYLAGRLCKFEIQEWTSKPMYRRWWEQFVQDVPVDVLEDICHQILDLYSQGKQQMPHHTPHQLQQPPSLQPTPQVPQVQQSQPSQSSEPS

Compound	IC50 [1, 3]	IC50 ([2]; Homo sapiens, MDA-MB-231, 96 h)	IC50 (CDK12/CycK)	IC50 ([1]; Inhibition of BRCA1 mRNA expression in MDA-MB-231 cells)	IC50 [2]	IC50 ([1]; Homo sapiens, Inhibition of BRCA1 mRNA expression in MDA-MB-231 cells)	IC50 ([2]; Homo sapiens, 96 h)
CN1CCN(c2nc(NCc3nc4cc(F)c(Cl)cc4[nH]3)n3ncc(Br)c3n2)CC1 [Example 337, 8-bromo-N-[(6-chloro-5-fluoro-1H-benzimidazol-2-yl)methyl]-2-(4-methylpiperazin-1-yl)pyrazolo[1,5-a][1,3,5]triazin-4-amine]	< 10 nM	2.45 nM	8720 nM				
Fc1cc2nc(CNc3nc(N4CC5CCC(C4)N5)nc4c(Br)cnn34)[nH]c2cc1Cl [Example 348, 8-bromo-N-[(6-chloro-5-fluoro-1H-benzimidazol-2-yl)methyl]-2-(3,8-diazabicyclo[3.2.1]octan-3-yl)pyrazolo[1,5-a][1,3,5]triazin-4-amine]			2890 nM			1.97 nM	2 nM
CN(CC(C)(C)O)c1nc(NCc2nc3c(F)c(Cl)ccc3[nH]2)n2ncc(C3CC3)c2n1 [Example 387, 1-[(4-{[(5-chloro-4-fluoro-1H-benzimidazol-2-yl)methyl]amino}-8-cyclopropylpyrazolo[1,5-a][1,3,5]triazin-2-yl)(methyl)amino]-2-methylpropan-2-ol]	5.56 nM	4.57 nM	233 nM				
FC(F)(F)c1ccc2[nH]c(CNc3nc(N4CCOCC4)nc4c(C5CC5)cnn34)nc2c1 [Example 322, 8-cyclopropyl-2-(morpholin-4-yl)-N-{[5-(trifluoromethyl)-1H-benzimidazol-2-yl]methyl}pyrazolo[1,5-a][1,3,5]triazin-4-amine]	3.56 nM	8.85 nM	1210 nM				
Fc1c(Cl)ccc2[nH]c(CNc3nc(N4CCOCC4)nc4c(Br)cnn34)nc12 [Example 372, 8-bromo-N-[(5-chloro-4-fluoro-1H-benzimidazol-2-yl)methyl]-2-(morpholin-4-yl)pyrazolo[1,5-a][1,3,5]triazin-4-amine]	2.16 nM	4.28 nM	269 nM				
FC(F)(F)Oc1ccc2[nH]c(CNc3nc(N4C[C@H]5CC[C@@H](C4)N5)nc4c(Br)cnn34)nc2c1 [Example 382, 8-bromo-2-[(1R,5S)-3,8-diazabicyclo[3.2.1]octan-3-yl]-N-{[5-(trifluoromethoxy)-1H-benzimidazol-2-yl]methyl}pyrazolo[1,5-a][1,3,5]triazin-4-amine]	28.8 nM	29.3 nM	823 nM				
Fc1ccc2[nH]c(CNc3nc(N4CC5CCC(C4)N5)nc4c(Cl)cnn34)nc2c1F.O=CO [Example 360, formic acid 8-chloro-2-(3,8-diazabicyclo[3.2.1]octan-3-yl)-N-[(4,5-difluoro-1H-benzimidazol-2-yl)methyl]pyrazolo[1,5-a][1,3,5]triazin-4-amine]	1.03 nM	5.67 nM	4010 nM				
Fc1cc2nc(CNc3nc(N4CC5CCC(C4)N5)nc4c(C5CC5)cnn34)[nH]c2cc1F [Example 325, 8-cyclopropyl-2-(3,8-diazabicyclo[3.2.1]octan-3-yl)-N-[(5,6-difluoro-1H-benzimidazol-2-yl)methyl]pyrazolo[1,5-a][1,5]triazin-4-amine]	3.91 nM	3.22 nM	3550 nM				
CN1C2CCC1CN(c1nc(NCc3nc4c(F)cccc4[nH]3)n3ncc(C(F)(F)F)c3n1)C2 [Example 384, N-[(4-fluoro-1H-benzimidazol-2-yl)methyl]-2-(8-methyl-3,8-diazabicyclo[3.2.1]octan-3-yl)-8-(trifluoromethyl)pyrazolo[1,5-a][1,3,5]triazin-4-amine]	13.6 nM	8.48 nM	8110 nM				

More lines, main results first:

IC50 [1, 3]	IC50 ([2]; Homo sapiens, MDA-MB-231, 96 h)	IC50 (CDK12/CycK)	IC50 ([1]; Inhibition of BRCA1 mRNA expression in MDA-MB-231 cells)	IC50 [2]	Compound	IC50 ([1]; Homo sapiens, Inhibition of BRCA1 mRNA expression in MDA-MB-231 cells)	IC50 ([2]; Homo sapiens, 96 h)
5.13 nM	3.73 nM	2220 nM			Fc1cc2nc(CNc3nc(N4CCOCC4)nc4c(Br)cnn34)[nH]c2cc1F [Example 341, 8-bromo-N-[(5,6-difluoro-1H-benzimidazol-2-yl)methyl]-2-(morpholin-4-yl)pyrazolo[1,5-a][1,3,5]triazin-4-amine]		
2.56 nM	3.75 nM	350 nM			CN(CC(C)(C)O)c1nc(NCc2nc3cc(Cl)c(Cl)cc3[nH]2)n2ncc(Br)c2n1 [Example 331, 1-[(8-bromo-4-{[(5,6-dichloro-1H-benzimidazol-2-yl)methyl]amino}pyrazolo[1,5-a][1,3,5]triazin-2-yl)(methyl)amino]-2-methylpropan-2-ol]		
3.87 nM	14.8 nM	11600 nM			CN1CCN(c2nc(NCc3nc4c(F)c(F)ccc4[nH]3)n3ncc(Cl)c3n2)CC1 [Example 358, 8-chloro-N-[(4,5-difluoro-1H-benzimidazol-2-yl)methyl]-2-(4-methylpiperazin-1-yl)pyrazolo[1,5-a][1,3,5]triazin-4-amine]		
13.7 nM	13.7 nM	7800 nM			Brc1cnn2c(NCc3nc4ccccc4[nH]3)nc(N3CCN4CCC3C4)nc12 (stereo not drawn) [Example 350, N-[(1H-benzimidazol-2-yl)methyl]-8-bromo-2-(1,4-diazabicyclo[3.2.1]octan-4-yl)pyrazolo[1,5-a][1,3,5]triazin-4-amine]		
9.23 nM	7.66 nM	540 nM			Clc1cc2nc(CNc3nc(N4CCOCC4)nc4c(Br)cnn34)[nH]c2cc1Cl [Example 329, 8-bromo-N-[(5,6-dichloro-1H-benzimidazol-2-yl)methyl]-2-(morpholin-4-yl)pyrazolo[1,5-a][1,3,5]triazin-4-amine]		
27.1 nM	57.1 nM	1810 nM			CN(CC(C)(C)O)c1nc(NCc2nc3c(F)cccc3[nH]2)n2ncc(Cl)c2n1 [Example 366, 1-[(8-chloro-4-{[(4-fluoro-1H-benzimidazol-2-yl)methyl]amino}pyrazolo[1,5-a][1,3,5]triazin-2-yl)(methyl)amino]-2-methylpropan-2-ol]		
5.68 nM	3.38 nM	4630 nM			CN1CCN(c2nc(NCc3nc4cc(Cl)c(Cl)cc4[nH]3)n3ncc(Br)c3n2)CC1 [Example 330, 8-bromo-N-[(5,6-dichloro-1H-benzimidazol-2-yl)methyl]-2-(4-methylpiperazin-1-yl)pyrazolo[1,5-a][1,3,5]triazin-4-amine]		
3.59 nM	4.17 nM	557 nM			Cc1cc2nc(CNc3nc(N4CCOCC4)nc4c(C5CC5)cnn34)[nH]c2cc1C [Example 320, 8-cyclopropyl-N-[(5,6-dimethyl-1H-benzimidazol-2-yl)methyl]-2-(morpholin-4-yl)pyrazolo[1,5-a][1,3,5]triazin-4-amine]		
		6700 nM	3.77 nM	26.1 nM	Brc1cnn2c(NCc3nc4ccccc4[nH]3)nc(N3C[C@H]4CC[C@@H]3CO4)nc12 (single isomer, unassigned; enantiomer 2) [Example 391, N-[(1H-benzimidazol-2-yl)methyl]-8-bromo-2-{[1R or S-(1R*,4R*)]-2-oxa-5-azabicyclo[2.2.2]octan-5-yl}pyrazolo[1,5-a][1,3,5]triazin-4-amine (Enantiomer 2)]		
8 nM	4.27 nM	789 nM			Fc1cc2nc(CNc3nc(N4CCOCC4)nc4c(Br)cnn34)[nH]c2cc1Cl [Example 336, 8-bromo-N-[(6-chloro-5-fluoro-1H-benzimidazol-2-yl)methyl]-2-(morpholin-4-yl)pyrazolo[1,5-a][1,3,5]triazin-4-amine]		
6.05 nM	10.4 nM	1150 nM			Fc1ccc2[nH]c(CNc3nc(N4CCOCC4)nc4c(Cl)cnn34)nc2c1F [Example 357]		
